One may read the pKa as the negative logarithm of the acid dissociation constant. Low readings indicate a group that gives up its proton readily, high ones a group that holds its proton tightly. What is called IC50 is the concentration needed to halve the response being measured.

This note sets out measurements from ChEMBL document CHEMBL4028841, “The identification of novel acid isostere based inhibitors of the VPS10P family sorting receptor Sortilin” (Bioorg Med Chem Lett, 2017).

Active and inactive are the calls of the source. No cut-off for these calls is given here.

Tested on in one data set: not listed separately
The experiment in a line: Dissociation constant, pKa of the compound in 29 to 54% methanol. The data set is classed as physicochemical.
Details: not given
Regarding `Cn1nnc(O)c1CC(N)C(=O)O` (stereo not drawn), the pKa was 6.4. On the same count and under the same terms, the same measure for `CC(C)CCN1CC(=O)N=N1`: 7.

Another data set relates to MDR1. Put plainly: Permeability in MDCK cells expressing human MDR1 at 0.5 uM after 150 mins by LC-MS/MS analysis. The data set is classed as ADME, cell-based, Canis lupus familiaris. The note with it: dog, read-out: permeability.
On to `Cc1cccc(NC(=O)c2ccc(C(F)(F)F)cc2C(=O)O)n1`, for which the Papp at 2.5 h, 0.5 µM was determined as 3 nm/s. The same measure, in the same setting: to `CC(C)CCN1CC(=O)N=N1` belongs 29 nm/s. In the case of `CC(C)CCN1N=NC(=O)C1C(=O)Nc1cccnc1` (stereo not drawn), the Papp at 2.5 h, 0.5 µM is 29 nm/s. With `CC(C)CCN1N=NC(=O)C1NC(=O)c1cccnc1` (stereo not drawn), the Papp at 2.5 h, 0.5 µM was less than 1 nm/s. As to `CC(=O)NC1C(=O)N=NN1CCC(C)C` (stereo not drawn), the Papp at 2.5 h, 0.5 µM is less than 1 nm/s. Turning to `CNC(=O)C1C(=O)N=NN1CCC(C)C` (stereo not drawn), the Papp at 2.5 h, 0.5 µM is less than 1 nm/s.

The target of another data set is Sortilin (Homo sapiens) (UniProt Q99523). Put plainly: Displacement of [3H]-neurotensin from human His6-tagged sortilin at 500 uM pretreated for 30 mins followed by [3H]-neurotensin addition after 6 hrs measured for 360 secs by SPA relative to control.
Details: not given
(In general: Loss of bound radioactivity is the signal in a displacement assay; it reports binding, not function.)
Regarding `O=c1[nH]nc(-c2ccc(Cl)cc2)o1`, the Imax result was “inactive”. Still for that read-out and setting: the same measure for `O=C1CN(c2cccc(Cl)c2)N=N1`: “inactive”; for `Oc1nc(-c2ccccc2)no1`: 35%; for `O=c1[nH]c(-c2cccc(Cl)c2)no1`: 42%.

Turning to `O=c1[nH]nc(-c2cccc(Cl)c2)o1`, the Imax entry was “inactive”. The same measure, in the same setting: the same measure for `O=C1CC(c2cccc(Cl)c2)=NO1`: 30%; for `CC(C)CCN1N=NC(=O)C1C(C)C` (stereo not drawn): less than 20%. For `O=c1[nH]nc(-c2ccccc2Cl)o1`, the Imax worked out at 63%. Same read-out and setting: to `O=C1CN(c2ccccc2)N=N1` belongs 50%; to `O=c1[nH]c(Cc2ccccc2)no1`, 55%. For the molecule `O=c1cc(-c2ccccc2)o[nH]1`, the Imax result is “inactive”. Same read-out and setting: the same measure for `O=C1CN(c2ccccc2Cl)N=N1`: “inactive”. `CC(C)CN1CC(=O)N=N1`: the Imax stood at 69%. Consider `CC(C)Cc1n[nH]c(=O)o1`, for which the Imax was determined as 60%. On to `CCC1C(=O)N=NN1CCC(C)C` (stereo not drawn), for which the Imax came out at 57%.

Regarding `O=c1[nH]c(-c2ccccc2Cl)no1`, the Imax entry is “inactive”.

Take `O=c1[nH]nc(Cc2ccccc2)o1`: the Imax was found to be 54%. Still for that read-out and setting: the same measure for `O=C1CC(c2ccccc2Cl)=NO1`: 37%. On the same count and under the same terms, the same measure for `O=C1CN(c2ccc(Cl)cc2)N=N1`: “inactive”; for `O=C1CC(c2ccc(Cl)cc2)=NO1`: “inactive”; for `O=c1[nH]c(-c2ccc(Cl)cc2)no1`: “inactive”.

Another data set deals with T1, Sortilin (Homo sapiens, UniProt Q99523).
T1 sequence (Q99523 whole entry): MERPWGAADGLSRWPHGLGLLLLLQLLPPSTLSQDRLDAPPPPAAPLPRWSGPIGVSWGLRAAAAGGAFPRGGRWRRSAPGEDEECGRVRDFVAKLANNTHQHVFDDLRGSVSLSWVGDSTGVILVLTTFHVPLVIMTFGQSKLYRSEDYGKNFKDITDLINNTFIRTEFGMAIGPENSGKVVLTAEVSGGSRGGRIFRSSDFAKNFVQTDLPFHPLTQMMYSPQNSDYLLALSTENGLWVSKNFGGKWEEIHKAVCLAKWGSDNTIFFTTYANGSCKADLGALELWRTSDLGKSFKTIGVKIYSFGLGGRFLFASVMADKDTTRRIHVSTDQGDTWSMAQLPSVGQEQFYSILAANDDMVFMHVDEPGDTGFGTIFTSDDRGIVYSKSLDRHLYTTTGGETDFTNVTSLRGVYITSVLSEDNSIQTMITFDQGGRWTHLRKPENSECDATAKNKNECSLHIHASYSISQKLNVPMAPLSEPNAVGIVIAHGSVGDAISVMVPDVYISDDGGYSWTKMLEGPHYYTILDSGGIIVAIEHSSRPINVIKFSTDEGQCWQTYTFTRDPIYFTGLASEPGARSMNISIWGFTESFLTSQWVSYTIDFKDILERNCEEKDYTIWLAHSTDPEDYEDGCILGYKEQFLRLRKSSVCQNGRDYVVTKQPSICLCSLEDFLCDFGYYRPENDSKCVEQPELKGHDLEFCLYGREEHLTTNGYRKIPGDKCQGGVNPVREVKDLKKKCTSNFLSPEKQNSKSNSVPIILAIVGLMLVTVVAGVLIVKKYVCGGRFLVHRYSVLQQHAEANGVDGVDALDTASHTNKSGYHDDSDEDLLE
Put plainly: Displacement of [3H]-neurotensin from human His6-tagged sortilin pretreated for 30 mins followed by [3H]-neurotensin addition after 6 hrs measured for 360 secs by SPA.
Details: not given
Regarding `CC(C)CCN1N=NC(=O)C1C(N)=O` (stereo not drawn), the IC50 was 50.1 µM. In the case of `CC(C)CCC1=NOC(=O)C1`, the IC50 was 12.6 µM. Take `CC(C)CCN1CC(=O)N=N1`: the IC50 is 63.1 µM. For the molecule `O=c1[nH]nc(-c2ccccc2)o1`, the IC50 was 126 µM. For the molecule `CC(C)CCN1N=NC(=O)C1C(=O)Nc1cccnc1` (stereo not drawn), the IC50 is 3.98 µM. Regarding `O=C1CN(Cc2ccccc2)N=N1`, the IC50 was 126 µM. Same read-out and setting: to `CC(C)CCN1N=NC(=O)C1NC(=O)c1ccncc1` (stereo not drawn) belongs 20 µM.

Turning to `CC(C)CCc1n[nH]c(=O)o1`, the IC50 is 63.1 µM.

`CC(C)CCN1N=NC(=O)C1C(=O)Nc1ccncc1` (stereo not drawn): the IC50 is 63.1 µM. On the same count and under the same terms, to `CC(C)CCN1N=NC(=O)C1NC(=O)c1cccnc1` (stereo not drawn) belongs 12.6 µM; to `CC(C)CC1=NOC(=O)C1`, 31.6 µM. The same measure, in the same setting: to `CC(C)CCN1N=NC(=O)C1C` (stereo not drawn) belongs 79.4 µM; to `O=C1CC(c2ccccc2)=NO1`, 158 µM; to `CC(C)CCc1noc(=O)[nH]1`, 126 µM. On the same count and under the same terms, the same measure for `Cc1cccc(NC(=O)C2C(=O)N=NN2CCC(C)C)n1` (stereo not drawn): 12.6 µM; for `O=C1CC(Cc2ccccc2)=NO1`: 79.4 µM; for `CC(=O)NC1C(=O)N=NN1CCC(C)C` (stereo not drawn): 31.6 µM. In the case of `CNC(=O)C1C(=O)N=NN1CCC(C)C` (stereo not drawn), the IC50 is 39.8 µM. With `Cc1cccc(C(=O)NC2C(=O)N=NN2CCC(C)C)n1` (stereo not drawn), the IC50 was 39.8 µM.
